Measured values reported in patent US20070123551A1, “Use of metabotropic glutamarate receptor 5 (mglur5) antagonists for the treatment of gastrointestinal disorders” (priority 2003, published 2007).

System: WKY rats
Assay: in vivo gastric distension model (barostat, ramp and tonic distension) in conscious WKY rats
Parameters: species or system Wistar Kyoto rats
Source text: An in vivo gastric distension model is used as a model for functional gastrointestinal disorders, in particular for functional dyspepsia (Bayati A, Astin M, Ekman C, Mattsson H. Wistar Kyoto rats have impaired gastric adaptive accommodation in response to gastric distension. Gastroenterology 2003; 124 (4, suppl 1): W1471 (abstract)).
The gastric distension model enables detailed analysis of the physico-mechanical properties of the stomach, e.g. basal gastric tone, threshold for accommodation, accommodation rate, accommodation volume, and maximal gastric volume. […] Furthermore, it has been shown that patients with Functional Dyspepsia as well as Wistar Kyoto (WKY) rats have an impaired gastric adaptive response and also a lower total gastric volume as compared to healthy subjects and Sprague Dawley (SD) rats, respectively. In addition, the method has shown to be reproducible and reliable. Moreover, the advantage of the presently used barostat technique compared to other barostat techniques normally used in experimental clinical studies is that it is possible to discriminate between if a compound exerts its effect directly on gastric smooth muscles or if the effect involves the vagal reflex mechanism.
The rats are equipped with fistulas chronically implanted into the stomach. During gastric barostat experiments, a small inflatable plastic bag with a spherical shape is inserted through fistula into the glandular part of the stomach (middle to distal part in the rat). The experiments are performed in conscious rats. For detailed analysis of the physico-mechanical properties of the stomach, a combination of ramp and tonic distension paradigm is used. Pressure and volume data collected during experiments are saved for and further analysis.
In order to determine an animal's maximum gastric accommodation capacity, a balloon is inserted into the stomach of the animal and a four phase protocol which includes a start phase, a ramp phase, a tonic phase and an end phase is performed. A barostat system maintains the pressure by pumping air into and out of the balloon. The pressure applied to the balloon and the corresponding changes to the volume of the balloon are monitored throughout, e.g., using any barostat system known in the art (e.g., see Toma et al, Neurogastroenterol. Mot., 8, 19-28, 1996).
During the start phase a minimum distension pressure, e.g., 1 mmHg, is applied to the balloon until base line values are obtained. This is followed by a Ramp Phase. During this phase the pressure applied to the balloon is increased linearly with a constant increase in pressure to a preset maximum value. This second phase is then followed by the Tonic Phase at which the preset maximum pressure is kept constant. Finally, the pressure is rapidly dropped to the starting minimum distension pressure and this period is known as the End Phase.
To determine if an agent, e.g., a compound is useful in the treatment of FD, the maximum gastric accommodation rate in the WKY rat following administration of the compound is calculated. A compound of interest will be a compound that alters the maximum gastric accommodation rate in the animal and this is calculated by determining a difference in the maximum gastric accommodation rate before and after administration of the compound.
The Wistar Kyoto rats (WKY; M&B Denmark) are starved about 6 or 18 hours before each experiment depending on if the experiments are performed in the morning or in the afternoon. […]

[1] = 10 μmol/kg intravenously 3-5 min before start of ramp phase, compared to the control situation, FIG. 1

## Cc1cccc(C#Cc2ccccc2)n1 [MPEP, 2-methyl-6-(phenylethynyl)-pyridine]
[1]
  gastric volume during the ramp phase: increase
  gastric volume during the tonic phase: increase
10 μmol/kg intravenously, FIG. 1
  accommodation rate (the slope of volume curve during the tonic phase): increased
10 μmol/kg intravenously, compared to the control situation, FIG. 1
  maximum gastric volume: increased
10 μmol/kg intravenously, conclusion
  accommodation capacity: increases
